According to patent US20230399608A1, “PROCESS FOR ESTABLISHING A HUMAN TESTICULAR TISSUE CULTURE SYSTEM” (PATERNA BIOSCIENCES INC., priority 2021, published 2023):

Tests used:
[1] = test system: proliferating germ cells in cultured testicular tissue; assay: Inhibitor screen in cultured testicular tissue: EdU+ cells per unit area relative to best prior condition; type: cell-based, human; settings: for EdU+/area (um2) to condition 2: ratio of EdU+ cells per unit area in test condition to condition 2, inhibitor at concentration listed in Table 12
Description: In this study, the HIF-1a, apoptosis, inflammation, ROS, and angiogenesis pathways were primarily targeted to help maintain testicular somatic cell function and promote germ cell proliferation. The level of proliferation was quantified by calculating the number of Edu+ cells (EdU stains the cells that are in the process of replication) per unit area (in μm^2) in each condition and using the ratio of this parameter in the test condition to a previously identified best condition to quantify the effect of the tested condition.

[2] = test system: testicular tissue comprising tubules and germ cells; assay: Human testicular tissue culture: morphology and germ cell proliferation (EdU/DDX4); type: cell-based
Description: Tissue preparation: Whole testes are removed from cadaveric organ donors by DonorConnect staff, which are picked up by Utah team and transported to research lab on ice. Testicular tissues are cut by 3-5 mm by dimeter in size using surgical scissors and tweezers.
Culture media preparation: the base media is αMEM+10% KSR. We first tested various small molecular inhibitors/ligands with different concentrations in the base media to culture testicular tissues.
Tissue culture: Place three pieces of testicular tissue into one well of a 6-well plate with 2 ml of media in each well. The tissue should be fully immersed in media. Place the plate at 34° C. in 5% CO2 in an incubator with culture media changed every other day.
Morphology examination: Measure the sizes of the cultured testicular tissues at different time points, including Day 1, Day 7, Day 14, and Day 21. And then fix the sample for H&E staining.
Germ cell proliferation examination: Add Edu (2 ul into each well) at different time points at Day 0, Day 6, Day 13, Day 20. Harvest the tissue 24 hours later for the germ cell proliferation test. Samples are washed three times by PBS and digested to isolated tubules by collagenase type IV at 37° C. Then wash 3 times by PBS to terminate the digestion and perform whole-mount staining of the tubules with Edu and DDX4/UTF1/SYCP3.

Compound | EdU+/area (um2) to condition 2 [1] | further results
c1cc(CN2CCCNCCNCCCNCC2)ccc1CN1CCCNCCNCCCNCC1 [Plerixafor] | 1.4 | 
C[C@@H]1[C@H](O)[C@@H](C)/C=C/C=C/CC/C=C/C=C/C=C/C=C/C(O[C@H]2O[C@H](C)[C@@H](O)[C@H](N)[C@@H]2O)CC2O[C@](O)(CC(O)C(O)CCC(O)CC(O)CC(O)CC(=O)O[C@H]1C)CC(O)C2C(=O)O (some centres unmarked) [Nystatin] | 2.1 | improving germ cell proliferation ([1]; added to first culture condition, FIG. 31 / Table 12): effective at improving germ cell proliferation
C[C@]12CC[C@H]3[C@@H](CC[C@]4(O)C[C@@H](O)CC[C@]34C=O)[C@@]1(O)CC[C@@H]2C1=CC(=O)OC1 [Strophanthidin] | 2.2 | 
CS[C@H]1SC[C@H]2C(=O)N(C)[C@@H](C(C)C)C(=O)OC[C@@H](NC(=O)c3cnc4ccccc4n3)C(=O)N[C@@H](C)C(=O)N(C)[C@@H]1C(=O)N(C)[C@@H](C(C)C)C(=O)OC[C@@H](NC(=O)c1cnc3ccccc3n1)C(=O)N[C@@H](C)C(=O)N2C [echinomycin, Echinomycin] |  | germ cell survival ([2]; even two weeks after start of culture): helps germ cell survival; maintenance of testicular tissue structure ([2]; inhibitor added to base culture media): helps maintain testicular tissue structure
CC(C)=CCC[C@](C)(O[C@@H]1O[C@H](CO)[C@@H](O)[C@H](O)[C@H]1O)[C@H]1CC[C@]2(C)[C@@H]1[C@H](O)C[C@@H]1[C@@]3(C)CC[C@H](O)C(C)(C)[C@@H]3[C@@H](O[C@@H]3O[C@H](CO)[C@@H](O)[C@H](O)[C@H]3O[C@@H]3OC[C@@H](O)[C@H](O)[C@H]3O)C[C@]12C [Notoginsenoside R1] | 1.5 | 
O=C(Nc1ccc([N+](=O)[O-])cc1O)Nc1ccccc1Br [SB225002] | 1.7 | 
